The source of these data is patent publication US6060448A, “Casein fragments having growth promoting activity” (Pepsyn Limited, priority 1995, dated 2000).

The test system of this assay is Rama 27 cells. Description: incorporation of [3H] thymidine into the DNA of Rama 27 cells (growth promoting / mitogenic assay). It is filed as cell-based. The note with it: Rama 27 rat mammary fibroblast cell line. On the procedure: The growth promoting activity of different milk types was determined by precipitating caseins and assaying the supernatants for their ability to stimulate the incorporation of [3H] thymidine into the DNA of Rama 27 cells by known methodology (Smith et al, 1984).
The protein fractions A,B,C, of the casein digest where assayed for their ability to stimulate the incorporation of [3H] thymidine into the DNA of Rama 27 cells exactly as described previously.
In table 1, * indicates one unit of activity is defined as the amount of protein required to produce half maximal stimulation compared with 1% FCS when added to R27 cells.

PDGF: the “growth promoting activity (incorporation of 3H-thymidine into DNA)” value is “not significantly stimulated”.
